The values that follow come from US9725448B2, “Neprilysin inhibitors” (THERAVANCE BIOPHARMA R&D IP, LLC, priority 2011, dated 2017).

SMILES strings stand for the structures.

The target in the assay is T1, human NEP (Homo sapiens, UniProt P08473).
T1 construct: purchased R&D Systems, Minneapolis, Minn; 1182-ZN
T1 sequence (P08473 52-750 limits assumed): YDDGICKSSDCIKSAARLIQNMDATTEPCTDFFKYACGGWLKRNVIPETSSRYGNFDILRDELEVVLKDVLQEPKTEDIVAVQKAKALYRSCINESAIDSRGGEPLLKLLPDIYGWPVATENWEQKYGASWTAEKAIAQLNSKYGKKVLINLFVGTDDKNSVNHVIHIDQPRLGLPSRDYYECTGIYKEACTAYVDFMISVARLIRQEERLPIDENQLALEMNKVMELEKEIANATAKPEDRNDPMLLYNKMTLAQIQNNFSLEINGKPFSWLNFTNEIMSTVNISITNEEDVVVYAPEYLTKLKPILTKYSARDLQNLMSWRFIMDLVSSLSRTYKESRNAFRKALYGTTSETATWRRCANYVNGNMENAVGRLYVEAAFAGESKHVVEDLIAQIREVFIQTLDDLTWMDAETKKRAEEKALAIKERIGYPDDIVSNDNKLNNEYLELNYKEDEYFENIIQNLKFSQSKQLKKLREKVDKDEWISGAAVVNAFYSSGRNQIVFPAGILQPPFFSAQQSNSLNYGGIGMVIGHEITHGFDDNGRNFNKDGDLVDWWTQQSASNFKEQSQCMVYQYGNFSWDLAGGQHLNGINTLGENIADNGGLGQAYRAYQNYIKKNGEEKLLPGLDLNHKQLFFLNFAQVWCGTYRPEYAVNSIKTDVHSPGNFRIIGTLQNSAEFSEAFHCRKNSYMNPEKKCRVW
Nature of the assay: In vitro enzyme inhibition assay at human NEP (fluorogenic peptide substrate). The format is biochemical. Particulars: pKi values at human NEP (recombinant), given as ranges. As to the method: The inhibitory activities of compounds at human and rat neprilysin (EC 3.4.24.11; NEP) and human angiotensin converting enzyme (ACE) were determined using in vitro assays as described below.
Recombinant human NEP and recombinant human ACE were obtained commercially (R&D Systems, Minneapolis, Minn., catalog numbers 1182-ZN and 929-ZN, respectively). The fluorogenic peptide substrate Mca-D-Arg-Arg-Leu-Dap-(Dnp)-OH (Medeiros et al. (1997) Braz. J. Med. Biol. Res. 30:1157-62; Anaspec, San Jose, Calif.) and Abz-Phe-Arg-Lys(Dnp)-Pro-OH (Araujo et al. (2000) Biochemistry 39:8519-8525; Bachem, Torrance, Calif.) were used in the NEP and ACE assays respectively.
The assays were performed in 384-well white opaque plates at 37° C. using the fluorogenic peptide substrates at a concentration of 10 μM in Assay Buffer (NEP: 50 mM HEPES, pH 7.5, 100 mM NaCl, 0.01% polyethylene glycol sorbitan monolaurate (Tween-20), […]; ACE: 50 mM HEPES, pH 7.5, 100 mM NaCl, 0.01% Tween-20, 1 μM ZnSO4).
Test compounds were assayed over the range of concentrations from 10 μM to 20 pM. Test compounds were added to the enzymes and incubated for 30 minute at 37° C. prior to initiating the reaction by the addition of substrate. Reactions were terminated after 20 minutes of incubation at 37° C. by the addition of glacial acetic acid to a final concentration of 3.6% (v/v).
Plates were read on a fluorometer with excitation and emission wavelengths set to 320 nm and 405 nm, respectively. Inhibition constants were obtained by nonlinear regression of the data using the equation (GraphPad Software, Inc., San Diego, Calif.): ν=ν0/[1+(I/K′)] where ν is the reaction rate, ν0 is the uninhibited reaction rate, I is the inhibitor concentration and K′ is the apparent inhibition constant.
Compounds of the invention were tested in this assay and found to have pKi values at human NEP as follows.
Turning to `C[C@@](O)(C[C@@H](Cc1ccc(-c2ccccc2)cc1)NC(=O)c1cnn[nH]1)C(=O)O` [Example 1B, (2R,4R)-5-Biphenyl-4-yl-2-hydroxy-2-methyl-4-[(3H-[1,2,3]triazole-4-carbonyl)-amino]-pentanoic acid], the Ki is 1.26 to 10 nM.

Turning to `C[C@](O)(C[C@@H](Cc1ccc(-c2ccccc2)cc1)NC(=O)c1cnn[nH]1)C(=O)O` [Example 2-1, (2S,4R)-5-Biphenyl-4-yl-2-hydroxy-2-methyl-4-[(3H-[1,2,3]triazole-4-carbonyl)-amino]-pentanoic acid], the Ki was 12.6 to 100 nM. For the molecule `CC(O)(C[C@@H](Cc1ccc(-c2ccccc2)cc1)NC(=O)c1nc[nH]n1)C(=O)O` (stereo partly drawn) [Example 2-2, (R)-5-Biphenyl-4-yl-2-hydroxy-2-methyl-4-[(2H-[1,2,4]triazole-3-carbonyl)-amino]-pentanoic acid], the Ki was 12.6 to 100 nM.

Take `CC(O)(C[C@@H](Cc1ccc(-c2ccccc2)cc1)NC(=O)c1n[nH]c(Cl)n1)C(=O)O` (stereo partly drawn) [Example 2-3, (R)-5-Biphenyl-4-yl-4-[(5-chloro-2H-[1,2,4]triazole-3-carbonyl)-amino]-2-hydroxy-2-methyl-pentanoic acid]: the Ki was 12.6 to 100 nM. In the case of `CC(O)(C[C@@H](Cc1ccc(-c2ccccc2)cc1)NC(=O)c1cc(F)c2nn[nH]c2c1)C(=O)O` (stereo partly drawn) [Example 2-4, (R)-5-Biphenyl-4-yl-4-[(7-fluoro-3H-benzotriazole-5-carbonyl)-amino]-2-hydroxy-2-methyl-pentanoic acid], the inhibition constant (Ki) was 1.26 to 10 nM. Next, `CC(O)(C[C@@H](Cc1ccc(-c2ccccc2)cc1)NC(=O)c1cc(Cl)c2nn[nH]c2c1)C(=O)O` (stereo partly drawn) [Example 2-5, (R)-5-Biphenyl-4-yl-4-[(7-chloro-3H-benzotriazole-5-carbonyl)-amino]-2-hydroxy-2-methyl-pentanoic acid]: 1.26 to 10 nM.

On to `C[C@](O)(C[C@@H](Cc1ccc(-c2ccccc2)cc1)NC(=O)c1cnc2nn[nH]c2c1)C(=O)O` [Example 2-6, (2S,4R)-5-Biphenyl-4-yl-2-hydroxy-2-methyl-4-[(1H-[1,2,3]triazolo[4,5-b]pyridine-6-carbonyl)-amino]-pentanoic acid], for which the Ki was 12.6 to 100 nM. Next, `CC(O)(C[C@@H](Cc1ccc(-c2ccccc2)cc1)NC(=O)c1cc(O)no1)C(=O)O` (stereo partly drawn) [Example 2-7, (R)-5-Biphenyl-4-yl-2-hydroxy-4-[(3-hydroxy-isoxazole-5-carbonyl)-amino]-2-methyl-pentanoic acid]: no more than 1 nM. `C[C@@](O)(C[C@@H](Cc1ccc(-c2ccccc2)cc1)NC(=O)c1cnc(O)nc1)C(=O)O` [Example 2-9, (2R,4R)-5-Biphenyl-4-yl-2-hydroxy-4-[(2-hydroxy-pyrimidine-5-carbonyl)-amino]-2-methyl-pentanoic acid]: the Ki is no more than 1 nM.

For `C[C@](O)(C[C@@H](Cc1ccc(-c2ccccc2)cc1)NC(=O)c1cnc(O)nc1)C(=O)O` [Example 2-10, (2S,4R)-5-Biphenyl-4-yl-2-hydroxy-4-[(2-hydroxy-pyrimidine-5-carbonyl)-amino]-2-methyl-pentanoic acid], the Ki was 1.26 to 10 nM. With `C[C@](O)(C[C@@H](Cc1ccc(-c2ccccc2)cc1)NC(=O)c1cc(C(=O)O)[nH]n1)C(=O)O` [Example 2-11, 5-((1R,3S)-1-Biphenyl-4-ylmethyl-3-carboxy-3-hydroxy-butylcarbamoyl)-2H-pyrazole-3-carboxylic acid], the Ki was 1.26 to 10 nM.

As to `CC(O)(C[C@@H](Cc1ccc(-c2ccccc2)cc1)NC(=O)c1cc(O)n[nH]1)C(=O)O` (stereo partly drawn) [Example 2-12, (R)-5-Biphenyl-4-yl-2-hydroxy-4-[(5-hydroxy-2H-pyrazole-3-carbonyl)-amino]-2-methyl-pentanoic acid], the Ki was 1.26 to 10 nM.

As to `C[C@@](O)(C[C@@H](Cc1ccc(-c2ccccc2)cc1)NC(=O)c1cc(C(=O)O)n[nH]1)C(=O)O` [Example 2-13, 5-((1R,3R)-1-Biphenyl-4-ylmethyl-3-carboxy-3-hydroxy-butylcarbamoyl)-1H-pyrazole-3-carboxylic acid], the inhibitory constant (Ki) is no more than 1 nM. `CC(O)(CN(Cc1ccc(-c2ccccc2)cc1)NC(=O)c1cc(O)no1)C(=O)O` (stereo not drawn) [Example 3B, 3-[N-Biphenyl-4-ylmethyl-N′-(3-hydroxy-isoxazole-5-carbonyl)-hydrazino]-2-hydroxy-2-methyl-propionic acid]: the inhibitory constant (Ki) was 1.26 to 10 nM. As for `CC(O)(CN(Cc1ccc(-c2ccccc2)cc1)NC(=O)c1cnn[nH]1)C(=O)O` (stereo not drawn) [Example 4-1, 3-[N-Biphenyl-4-ylmethyl-N′-(3H-[1,2,3]triazole-4-carbonyl)-hydrazino]-2-hydroxy-2-methyl-propionic acid], the inhibition constant (Ki) was 12.6 to 100 nM. In the case of `CC(O)(CN(Cc1ccc(-c2ccccc2)cc1)NC(=O)c1nnc(Cl)[nH]1)C(=O)O` (stereo not drawn) [Example 4-2, 3-[N-Biphenyl-4-ylmethyl-N′-(5-chloro-4H-[1,2,4]triazole-3-carbonyl)-hydrazino]-2-hydroxy-2-methyl-propionic acid] it was 126 to 1000 nM; in that of `COc1cc(C(=O)NN(Cc2ccc(-c3ccccc3)cc2)CC(C)(O)C(=O)O)on1` (stereo not drawn) [Example 4-3, 3-[N-Biphenyl-4-ylmethyl-N′-(3-methoxy-isoxazole-5-carbonyl)-hydrazino]-2-hydroxy-2-methyl-propionic acid], 126 to 1000 nM; in that of `CC(O)(CN(Cc1ccc(-c2ccccc2)cc1)NC(=O)c1cnc(O)nc1)C(=O)O` (stereo not drawn) [Example 4-4, 3-[N-Biphenyl-4-ylmethyl-N′-(2-hydroxy-pyrimidine-5-carbonyl)-hydrazino]-2-hydroxy-2-methyl-propionic acid], 12.6 to 100 nM. Take `CC(O)(CN(Cc1ccc(-c2ccccc2)cc1)NC(=O)c1cc(O)n[nH]1)C(=O)O` (stereo not drawn) [Example 4-5, 3-[N-Biphenyl-4-ylmethyl-N′-(5-hydroxy-2H-pyrazole-3-carbonyl)-hydrazino]-2-hydroxy-2-methyl-propionic acid]: the Ki was 12.6 to 100 nM. Next, `CC(O)(CN(Cc1ccc(-c2ccccc2)cc1)NC(=O)c1cc(C(=O)O)n[nH]1)C(=O)O` (stereo not drawn) [Example 4-6, 5-[N′-Biphenyl-4-ylmethyl-N′-(2-carboxy-2-hydroxy-propyl)-hydrazinocarbonyl]-1H-pyrazole-3-carboxylic acid]: 1.26 to 10 nM; `CN(C)C(=O)c1cc(C(=O)NN(Cc2ccc(-c3ccccc3)cc2)CC(C)(O)C(=O)O)[nH]n1` (stereo not drawn) [Example 4-7, 3-[N-Biphenyl-4-ylmethyl-N′-(5-dimethylcarbamoyl-2H-pyrazole-3-carbonyl)-hydrazino]-2-hydroxy-2-methyl-propionic acid]: 12.6 to 100 nM; `CC(O)(CN(Cc1ccc(-c2ccccc2)cc1)NC(=O)c1cc(C(=O)N2CCCC2)n[nH]1)C(=O)O` (stereo not drawn) [Example 4-8, 3-{N-Biphenyl-4-ylmethyl-N′-[5-(pyrrolidine-1-carbonyl)-2H-pyrazole-3-carbonyl]-hydrazino}-2-hydroxy-2-methyl-propionic acid]: 12.6 to 100 nM. In the case of `CC(O)(CN(Cc1ccc(-c2cccc(F)c2)cc1)NC(=O)c1cc(O)no1)C(=O)O` (stereo not drawn) [Example 5, 3-[N-(3′-Fluorobiphenyl-4-ylmethyl)-N′-(3-hydroxy-isoxazole-5-carbonyl)-hydrazino]-2-hydroxy-2-methyl-propionic Acid], the inhibition constant (Ki) was 1.26 to 10 nM. For the molecule `C[C@@](O)(CN(Cc1ccc(-c2cc(Cl)ccc2F)cc1)NC(=O)c1cc(O)no1)C(=O)O` [Example 6A, (R)-3-[N-(5′-Chloro-2′-fluorobiphenyl-4-ylmethyl)-N′-(3-hydroxy-isoxazole-5-carbonyl)-hydrazino]-2-hydroxy-2-methyl-propionic acid], the Ki is no more than 1 nM.

As for `C[C@@](O)(CN(Cc1ccc(-c2cccc(Cl)c2)cc1)NC(=O)c1cnn[nH]1)C(=O)O` [Example 7-1, (R)-3-[N-(3′-Chlorobiphenyl-4-ylmethyl)-N′-(3H-[1,2,3]triazole-4-carbonyl)-hydrazino]-2-hydroxy-2-methyl-propionic acid], the inhibition constant Ki is 1.26 to 10 nM. Next, `C[C@@](O)(CN(Cc1ccc(-c2cccc(Cl)c2)cc1)NC(=O)c1cn(O)nn1)C(=O)O` [Example 7-2, (R)-3-[N-(3′-Chlorobiphenyl-4-ylmethyl)-N′-(1-hydroxy-1H-[1,2,3]triazole-4-carbonyl)-hydrazino]-2-hydroxy-2-methyl-propionic acid]: 1.26 to 10 nM. In the case of `C[C@@](O)(CN(Cc1ccc(-c2cc(Cl)ccc2F)cc1)NC(=O)c1cn(O)nn1)C(=O)O` [Example 7-3, (R)-3-[N-(5′-Chloro-2′-fluorobiphenyl-4-ylmethyl)-N′-(1-hydroxy-1H-[1,2,3]triazole-4-carbonyl)-hydrazino]-2-hydroxy-2-methyl-propionic acid] it was no more than 1 nM.
